Measured values reported in patent US7462605B2, “Phosphoramidate compounds and methods of use” (Celmed Oncology (USA), Inc., priority 2002, dated 2008).

Assays:
[1] = target: T1, rHuTS (recombinant human thymidylate synthase) (Homo sapiens, UniProt P04818); assay: Enzyme kinetics of rHuTS with dUMP and BVdUMP; format: biochemical
T1 construct: His tag (from pET-28a(+)) (N); made in house; host or cells: E. coli BL21 (DE3)/pET-28a(+)
Description: Enzyme Preparation. Cloned human thymidylate synthase plasmid pBCHTS was subcloned into E. coli. BL21 (DE3)/pET-28a(+) (Novagen) using the Ndel ñSacI insertion site, in order to add an amino terminal His tag. Enzyme was expressed in E. coli. by induction with IPTG, and purified by affinity chromatography on a Ni^2+ His Bind metal chelation resin (Novagen). The column Ni^2+ His Bind metal chelation column was washed with 20 mM Tris pH 7.9, 5 mM imidazole, 0.5M NaCl; thymidylate synthase activity was eluted with 20 mM Tris pH 7.9, 60 mM imidazole, 0.5M NaCl.
(§1) Enzyme Assays and Kinetic Measurements. Thymidylate synthase assays were done in 96 well Costar UV transparent plates in a reaction volume of 200 μL, consisting of 40 mM Tris pH 7.5, 25 mM MgCl2, 1 mM EDTA, 25 mM-mercaptoethanol, 125M dUMP, and 65 μM N5, N10-methylene tetrahydrofolate indicated. Tetrahydrofolate stock solutions were prepared by dissolving tetrahydrofolic acid (Sigma) directly into 0.2M Tris pH 7.5, 0.5 M-mercaptoethanol; stock solutions were stored at −80° C. N5, N10-methylene tetrahydrofolate was prepared by adding 12 μl of 3.8% formaldehyde to 1 ml of a 0.65 mM solution of tetrahydrofolate and incubating for 5 minutes at 37° C. N5, N10-methylene tetrahydrofolate was kept on ice and used within 2 hours of preparation.
Enzyme kinetic constants (Km and Vmax) were determined for the human thymidylate synthase substrates dUMP and BVdUMP using the enzyme assay conditions described above. The initial rates of the enzyme reactions was determined by measuring the increase in A340 for the reaction with dUMP, and decrease in A294 for the reaction with BVdUMP. The catalytic efficiency of the enzyme (Kcat/Km) was calculated from the kinetic constants Km and Vmax.

Lactobacillus casei TS = target: T2, Lactobacillus casei TS (Lacticaseibacillus casei, UniProt P00469); details: cited from earlier work
T2 sequence (P00469 1-316): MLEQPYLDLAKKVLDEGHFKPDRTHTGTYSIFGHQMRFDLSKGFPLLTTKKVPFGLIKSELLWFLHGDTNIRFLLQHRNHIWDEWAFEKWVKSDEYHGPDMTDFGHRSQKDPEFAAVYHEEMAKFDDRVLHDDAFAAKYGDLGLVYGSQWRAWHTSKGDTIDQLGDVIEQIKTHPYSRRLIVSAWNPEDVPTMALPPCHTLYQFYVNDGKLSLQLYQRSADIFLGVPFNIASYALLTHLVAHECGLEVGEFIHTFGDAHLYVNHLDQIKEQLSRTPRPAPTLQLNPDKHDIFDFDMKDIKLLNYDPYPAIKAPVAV

rHuTS [2] = target: T3, rHuTS (Homo sapiens, UniProt P04818); assay: Inhibition of rHuTS reactions by Tomudex and 5-FdUMP (initial rates); format: biochemical; details: 30° C., fluorescence 340/595 nm
T3 construct: His tag (from pET-28a(+)) (N); made in house; host or cells: E. coli BL21 (DE3)/pET-28a(+)
T3 sequence (P04818 whole entry): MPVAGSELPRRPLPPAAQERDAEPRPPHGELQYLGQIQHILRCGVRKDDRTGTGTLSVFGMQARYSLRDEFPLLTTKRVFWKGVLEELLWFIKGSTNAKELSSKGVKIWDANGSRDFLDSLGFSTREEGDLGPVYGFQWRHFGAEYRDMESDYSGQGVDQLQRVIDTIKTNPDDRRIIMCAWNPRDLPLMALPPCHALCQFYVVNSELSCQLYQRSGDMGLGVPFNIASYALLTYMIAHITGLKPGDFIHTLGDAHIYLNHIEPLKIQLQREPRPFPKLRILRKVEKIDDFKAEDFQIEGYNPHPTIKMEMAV
Description: as §1
Conversion of BVdUMP to fluorescent product(s) by thymidylate synthase was measured in 200 μl thymidylate synthase reactions containing 125M BVdUMP in 96 well Dynex Microfluor Black “U” bottom microtiter plates using an excitation wavelength of 340 nm and emission wavelength of 595 nm. Fluorescence was measured with a Tecan Spectrafluor Plus fluorimeter.

rHuTS [3] = target: T3, rHuTS; assay: Preincubation of rHuTS with BVdUMP (enzyme inactivation); format: biochemical; details: 20 hour incubation with 125 μM BVdUMP, then dUMP as substrate
Description: Human thymidylate synthase was pre-incubated in reaction mixtures with and without 125 μM BVdUMP. After 20 hours, BVdUMP was added to a concentration of 125 μM, dUMP to a final concentration of 125 μM, and N5, N10-methylene tetrahydrofolate was added to 70 μM. Thymidylate synthase activity was determined by measuring the increase in A340. Solid circles (preincubated reaction), Open circles (no preincubation).
To help further clarify this situation, an extended incubation of rHuTS with BVdUMP was done in order to measure any inactivation that may occur over a period of time longer than that in which the kinetics were performed (FIG. 2).

T1 sequence (P04818 whole entry): as above

`O=c1[nH]c(=O)n([C@H]2C[C@H](O)[C@@H](COP(=O)(O)O)O2)cc1/C=C/Br` [BVdUMP, Bromovinyl, 2′-Deoxyuridine Monophosphate] showed a Kcat ([1]; rHuTS) of 0.0067 s⁻¹, a Ki ([1]; rHuTS, dUMP reaction, read-out: Kl (of BVdUMP)) of 4500 nM and a Km ([1]; rHuTS, substrate) of 16 µM. For the same molecule, the “improved efficiency of conversion of BVdUMP, human enzyme vs L. casei enzyme” value ([1]; relative to endogenous substrate dUMP) was greater than 6.4 fold, the Kcat (Lactobacillus casei TS) was 0.018 s⁻¹ and the Ki (Lactobacillus casei TS; dUMP reaction, read-out: Kl (of BVdUMP)) was 600 nM. For the same molecule, the Km (Lactobacillus casei TS; substrate) was 3.3 µM, the “initial rate of rHuTS reaction, No Inhibitor” value (rHuTS [2]; BVdUMP + THF) was 109 ± 16 RFU/min and the “initial rate of rHuTS reaction, No Inhibitor” value (rHuTS [2]; BVdUMP − THF) was 75 ± 11 RFU/min. For the same molecule, the “inactivation of rHuTS” value (rHuTS [3]) was “little or no enzymatic inactivation”.
